Laboratory results published in patent publication US8008290B2, “Compounds” (priority 2009, dated 2011).

Experiments:
[1] = molecular target: T1, Human recombinant cathepsin K (Homo sapiens, UniProt P43235); assay: In vitro cathepsin Ki inhibition measurement, cathepsin K; type: biochemical; settings: for Ki: human cathepsin K, steady-state, competitive model, read-out: In vitro Ki (nM) vs Cath K
T1 sequence (P43235 115-329): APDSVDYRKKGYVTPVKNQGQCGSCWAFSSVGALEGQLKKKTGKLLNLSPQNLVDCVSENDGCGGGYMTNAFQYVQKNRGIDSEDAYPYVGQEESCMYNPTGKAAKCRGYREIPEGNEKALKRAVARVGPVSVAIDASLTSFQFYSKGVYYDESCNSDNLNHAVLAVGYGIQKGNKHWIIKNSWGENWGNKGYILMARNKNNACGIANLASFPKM
Procedure: Stock solutions of substrate or inhibitor were made up to 10 mM in 100% dimethylsulfoxide (DMSO) (Rathburns, Glasgow, U.K.) and diluted as appropriately required. In all cases the DMSO concentration in the assays was maintained at less than 1% (vol./vol.). The equilibrium inhibition constants (Ki^ss) for each compound were measured under steady-state conditions monitoring enzyme activity as a function of inhibitor concentration. […] B. […] The apparent inhibition constant (Ki) for each compound was determined on the basis that inhibition was reversible and occurred by a pure-competitive mechanism. […] F. Trends Biochem. […] Morrison, J. F. Biochim. Biophys. […] Curves were fitted by non-linear regression analysis (Prism) using a fixed value for the enzyme concentration.

[2] = molecular target: T2, Human recombinant cathepsin S (Homo sapiens, UniProt P25774); assay: In vitro cathepsin Ki inhibition measurement, cathepsin S; type: biochemical
T2 construct: purchased Merck 219343; host or cells: E. coli
T2 sequence (P25774 115-331): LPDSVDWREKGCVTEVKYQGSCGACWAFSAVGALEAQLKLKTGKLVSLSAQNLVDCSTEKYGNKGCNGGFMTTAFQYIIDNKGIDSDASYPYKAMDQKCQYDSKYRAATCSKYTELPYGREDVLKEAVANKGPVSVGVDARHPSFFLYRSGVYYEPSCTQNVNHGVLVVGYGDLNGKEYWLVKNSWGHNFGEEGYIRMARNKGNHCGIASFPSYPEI
Procedure: Stock solutions of substrate or inhibitor were made up to 10 mM in 100% dimethylsulfoxide (DMSO) (Rathburns, Glasgow, U.K.) and diluted as appropriately required. In all cases the DMSO concentration in the assays was maintained at less than 1% (vol./vol.). The equilibrium inhibition constants (Ki^ss) for each compound were measured under steady-state conditions monitoring enzyme activity as a function of inhibitor concentration. […] The apparent inhibition constant (Ki) for each compound was determined on the basis that inhibition was reversible and occurred by a pure-competitive mechanism. […] Biophys. […] Curves were fitted by non-linear regression analysis (Prism) using a fixed value for the enzyme concentration.

| SMILES | Ki [1] | fold improvement in in vitro potency against human cathepsin K ([1]; relative to Compound 1) | fold improvement in in vitro potency against human cathepsin S ([2]; relative to Compound 1) | fold improvement in in vitro potency against human cathepsin K ([1]; relative to compound 3) | fold improvement in in vitro potency against human cathepsin S ([2]; relative to compound 3) |
| --- | --- | --- | --- | --- | --- |
| O=C(N[C@H](C(=O)N1C[C@H](F)[C@H]2OCC(=O)[C@H]21)C1CCCCC1)c1ccccc1 [Compound 2] | 95 nM | 3.2 fold | 3.8 fold |  |  |
| O=C(N[C@H](C(=O)N1CC[C@H]2OCC(=O)[C@H]21)C1CCCCC1)c1cccc(-n2cnnn2)c1 [Compound 3] | 560 nM |  |  |  |  |
| O=C(N[C@H](C(=O)N1C[C@H](F)[C@H]2OCC(=O)[C@H]21)C1CCCCC1)c1cccc(-n2cnnn2)c1 [Compound 4] | 340 nM |  |  | 1.7 fold | 3.4 fold |
| O=C(N[C@H](C(=O)N1C[C@@H](Cl)[C@H]2OCC(=O)[C@H]21)C1CCCCC1)c1cccc(-n2ccnc2)c1 [Compound 5] | 230 nM |  |  |  |  |
| O=C(N[C@H](C(=O)N1C[C@H](Cl)[C@H]2OCC(=O)[C@H]21)C1CCCCC1)c1ccccc1 [EXAMPLE 1, N—((S)-2-((3aS,6S,6aS)-6-chloro-3-oxodihydro-2H-furo[3,2-b]pyrrol-4(5H,6H,6aH)-yl)-1-cyclohexyl-2-oxoethyl)benzamide] | 35 nM |  |  |  |  |
| O=C(N[C@H](C(=O)N1C[C@H](Cl)[C@H]2OCC(=O)[C@H]21)C1CCCCC1)c1cccc(-n2cnnn2)c1 [EXAMPLE 2, N—((S)-2-((3aS,6S,6aS)-6-chloro-3-oxodihydro-2H-furo[3,2-b]pyrrol-4(5H,6H,6aH)-yl)-1-cyclohexyl-2-oxoethyl)-3-(1H-tetrazol-1-yl)benzamide] | 27 nM |  |  | 20.5 fold | 47 fold |
| O=C(N[C@H](C(=O)N1C[C@H](Cl)[C@H]2OCC(=O)[C@H]21)C1CCCCC1)c1cccc(-n2ccnc2)c1 [EXAMPLE 3, N—((S)-2-((3aS,6S,6aS)-6-chloro-3-oxodihydro-2H-furo[3,2-b]pyrrol-4(5H,6H,6aH)-yl)-1-cyclohexyl-2-oxoethyl)-3-(1H-imidazol-1-yl)benzamide] | 23 nM |  |  |  |  |
| O=C(N[C@@H](CC1CCCCC1)C(=O)N1CC[C@H]2OCC(=O)[C@H]21)c1ccccc1 [Prior art compound 38, reference compound] | > 4000 nM |  |  |  |  |
